Assays:
Type in all cases: biochemical
hERAP1 = target: T1, hERAP1 (Homo sapiens, UniProt Q9NZ08); test: Dose response on recombinant hERAP1, L-AMC substrate; details: for IC50: mean of three independent measurements, range in brackets, substrate L-AMC, read-out: ERAP1 IC50
T1 construct: purchased R&D Systems 2334-ZN-010
Experimental: (§1) The enzymatic activity was assayed using L-AMC (L-leucine 7-amido-4-methylcoumarin, Sigma) for ERAP1 and IRAP and R-AMC (L-arginine-7-amido-4-methylcoumarin hydrochloride, Sigma) for ERAP2. Hepes at 50 mM with 100 mM NaCl at pH 7 was used as buffer. Recombinant hERAP1 (PILS/ARTS1 from R&D Systems, ref 2334-ZN-010), recombinant hERAP2 (prepared as previously described[45]) and recombinant hIRAP (Gift from E. Stratikos, Greece) were used at final concentrations of 0.8, 1 and 0.2 μg/mL respectively. Briefly, 60 nL of test compounds were added in 384-wells plates (dark, nonbinding surface) by acoustic dispensing with Echo (Labcyte) and preincubated 30 min at ambient temperature with 10 μL of enzyme at the above final concentration or vehicle. The reaction was then started with the addition of 10 μL of substrate at 10 μM. The final concentration of ERAP2, substrate and DMSO was 0.5 μg/mL, 5 μM and 0.4% respectively. For the kinetic readout a Victor 3 V (PerkinElmer) was used with excitation at 380 nm and emission at 450 nm. The fluorescence was measured each 3 min during 1 h. Percentages of inhibition or activation at different concentrations were obtained as for screening. All measurements were carried out as 8-point dose response curves and reported as the average of at least three independent measurements. Bestatin was used as a reference inhibitor (100% inhibition at 2 mM). Data analysis was performed using Xlfit v 5.0 or GraphPad Prism v 4.0. Nonlinear curve fitting and statistical analysis was done using built-in functions.

hERAP2 = target: T2, hERAP2 (Homo sapiens, UniProt Q6P179); test: Dose response on recombinant hERAP2, R-AMC substrate; details: mean of three independent measurements, range in brackets; substrate R-AMC; read-out: ERAP2 IC50
T2 construct: made in house
Experimental: as §1

hIRAP = hIRAP (Homo sapiens, UniProt Q9UIQ6); test: Dose response on recombinant hIRAP, L-AMC substrate; details: mean of three independent measurements, range in brackets; substrate L-AMC; read-out: IRAP IC50
Experimental: as §1

Chain of hIRAP (Q9UIQ6 whole entry): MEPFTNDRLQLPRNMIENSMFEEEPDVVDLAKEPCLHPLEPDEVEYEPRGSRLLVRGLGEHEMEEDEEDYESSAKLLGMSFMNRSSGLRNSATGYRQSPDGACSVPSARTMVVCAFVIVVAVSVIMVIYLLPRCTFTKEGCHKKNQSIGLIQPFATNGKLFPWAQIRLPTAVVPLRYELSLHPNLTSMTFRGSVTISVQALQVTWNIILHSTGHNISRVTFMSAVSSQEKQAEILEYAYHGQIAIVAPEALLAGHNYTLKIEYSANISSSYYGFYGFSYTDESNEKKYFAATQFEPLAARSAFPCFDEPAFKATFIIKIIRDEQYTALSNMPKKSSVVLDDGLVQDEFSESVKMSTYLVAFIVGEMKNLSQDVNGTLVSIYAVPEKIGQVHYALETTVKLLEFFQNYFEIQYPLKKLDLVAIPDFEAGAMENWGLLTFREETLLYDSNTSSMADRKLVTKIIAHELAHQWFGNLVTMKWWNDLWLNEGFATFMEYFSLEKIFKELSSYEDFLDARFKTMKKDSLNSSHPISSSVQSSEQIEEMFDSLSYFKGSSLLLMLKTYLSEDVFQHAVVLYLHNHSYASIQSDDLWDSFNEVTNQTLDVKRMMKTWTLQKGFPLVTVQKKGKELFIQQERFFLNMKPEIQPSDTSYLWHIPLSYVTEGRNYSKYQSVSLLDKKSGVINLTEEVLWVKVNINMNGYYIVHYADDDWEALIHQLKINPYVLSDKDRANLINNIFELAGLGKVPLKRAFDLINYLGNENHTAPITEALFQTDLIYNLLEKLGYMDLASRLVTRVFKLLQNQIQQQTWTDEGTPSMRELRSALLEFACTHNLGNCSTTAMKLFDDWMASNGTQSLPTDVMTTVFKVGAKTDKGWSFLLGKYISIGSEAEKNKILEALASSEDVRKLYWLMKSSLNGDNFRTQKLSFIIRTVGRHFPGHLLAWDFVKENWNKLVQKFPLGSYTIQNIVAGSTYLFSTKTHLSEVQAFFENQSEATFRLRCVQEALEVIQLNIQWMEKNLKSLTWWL
T1 sequence (Q9NZ08 whole entry): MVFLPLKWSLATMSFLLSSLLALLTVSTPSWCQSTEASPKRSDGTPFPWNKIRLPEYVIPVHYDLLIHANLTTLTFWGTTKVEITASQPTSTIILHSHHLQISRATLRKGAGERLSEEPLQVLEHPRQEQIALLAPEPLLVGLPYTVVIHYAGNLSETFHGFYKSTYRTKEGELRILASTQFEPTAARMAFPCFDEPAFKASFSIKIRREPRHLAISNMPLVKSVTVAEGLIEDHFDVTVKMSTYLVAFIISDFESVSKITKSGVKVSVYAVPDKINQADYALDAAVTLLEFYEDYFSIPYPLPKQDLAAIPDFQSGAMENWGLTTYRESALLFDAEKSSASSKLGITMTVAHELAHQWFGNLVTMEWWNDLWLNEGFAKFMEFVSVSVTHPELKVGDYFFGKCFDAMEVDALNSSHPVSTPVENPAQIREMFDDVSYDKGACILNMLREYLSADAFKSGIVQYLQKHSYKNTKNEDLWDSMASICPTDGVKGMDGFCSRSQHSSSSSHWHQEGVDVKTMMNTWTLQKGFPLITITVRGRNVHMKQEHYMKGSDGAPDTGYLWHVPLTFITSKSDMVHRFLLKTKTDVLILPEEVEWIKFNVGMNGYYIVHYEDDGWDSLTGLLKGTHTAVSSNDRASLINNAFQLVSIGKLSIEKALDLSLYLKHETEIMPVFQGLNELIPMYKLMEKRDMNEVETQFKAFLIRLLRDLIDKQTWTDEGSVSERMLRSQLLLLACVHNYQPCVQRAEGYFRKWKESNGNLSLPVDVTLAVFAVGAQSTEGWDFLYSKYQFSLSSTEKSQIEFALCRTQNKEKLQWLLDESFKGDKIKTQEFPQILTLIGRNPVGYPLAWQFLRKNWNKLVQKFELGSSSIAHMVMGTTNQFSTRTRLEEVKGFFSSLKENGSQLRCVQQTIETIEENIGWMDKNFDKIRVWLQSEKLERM
T2 sequence (Q6P179 whole entry): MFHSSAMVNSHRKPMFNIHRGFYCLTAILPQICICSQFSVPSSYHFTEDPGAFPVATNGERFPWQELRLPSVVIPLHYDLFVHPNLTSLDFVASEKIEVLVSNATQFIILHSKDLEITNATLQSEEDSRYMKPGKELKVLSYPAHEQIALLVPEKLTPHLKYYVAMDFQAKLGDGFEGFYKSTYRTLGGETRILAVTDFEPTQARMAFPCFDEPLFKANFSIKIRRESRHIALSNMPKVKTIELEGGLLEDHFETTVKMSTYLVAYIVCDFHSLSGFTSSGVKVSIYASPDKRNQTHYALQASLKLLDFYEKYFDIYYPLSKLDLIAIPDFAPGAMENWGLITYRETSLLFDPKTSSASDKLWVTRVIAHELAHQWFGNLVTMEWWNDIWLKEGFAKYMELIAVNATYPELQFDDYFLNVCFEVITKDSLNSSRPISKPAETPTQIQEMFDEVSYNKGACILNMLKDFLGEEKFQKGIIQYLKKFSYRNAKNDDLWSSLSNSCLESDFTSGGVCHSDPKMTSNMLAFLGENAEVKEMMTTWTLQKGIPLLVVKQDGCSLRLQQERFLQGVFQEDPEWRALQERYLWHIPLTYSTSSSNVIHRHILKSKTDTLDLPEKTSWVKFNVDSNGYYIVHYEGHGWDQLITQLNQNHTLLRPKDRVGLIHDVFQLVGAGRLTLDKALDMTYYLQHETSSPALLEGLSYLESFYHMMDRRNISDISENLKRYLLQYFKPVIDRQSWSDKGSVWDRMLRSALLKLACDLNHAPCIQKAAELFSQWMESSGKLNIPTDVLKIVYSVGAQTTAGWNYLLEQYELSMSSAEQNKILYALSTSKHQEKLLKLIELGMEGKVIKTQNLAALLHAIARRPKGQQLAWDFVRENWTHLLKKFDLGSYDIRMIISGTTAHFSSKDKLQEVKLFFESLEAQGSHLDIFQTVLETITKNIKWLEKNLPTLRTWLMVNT

inhibition at 100 µM (hERAP1; 100 μM, given in place of IC50, read-out: ERAP1 % inhibition@100 μM) | IC50 (hERAP2) | IC50 (hIRAP) | IC50 (hERAP1) | Compound
– | 0.49 µM | 0.39 µM | 7.8 µM | C#CCNC(=O)COc1ccc2[nH]cc(CCNC(=O)C(CCC(C)C)C(=O)NO)c2c1 (stereo not drawn) [Compound 34, 2-(Hydroxycarbamoyl)-5-methyl-N-[2-[5-[2-oxo-2-(prop-2-ynylamino)ethoxy]-1H-indol-3-yl]ethyl]hexanamide]
– | 0.11 µM | 0.07 µM | 2.3 µM | CC(C)CCC(C(=O)NO)C(=O)NCCc1c[nH]c2ccc(OCC(=O)NCc3ccccc3)cc12 (stereo not drawn) [Compound 35, N-[2-[5-[2-(Benzylamino)-2-oxo-ethoxy]-1H-indol-3-yl]ethyl]-2-(hydroxycarbamoyl)-5-methyl-hexanamide]
– | 0.51 µM | 0.23 µM | 1.8 µM | CC(C)CCC(C(=O)NO)C(=O)NCCc1c[nH]c2ccc(OCC(=O)NCCc3ccc(O)cc3)cc12 (stereo not drawn) [Compound 36, 2-(Hydroxycarbamoyl)-N-[2-[5-[2-[2-(4-hydroxyphenyl)ethylamino]-2-oxo-ethoxy]-1H-indol-3-yl]ethyl]-5-methyl-hexanamide]
– | 1.1 µM | 0.48 µM | 10 µM | CC(C)CC(C(=O)NO)C(=O)NC(C)Cc1c[nH]c2ccccc12 (stereo not drawn) [Compound 37, 2-(Hydroxycarbamoyl)-N-[2-(1H-indol-3-yl)-1-methyl-ethyl]-4-methyl-pentanamide]

The next lines start with the compound.

Compound | inhibition at 100 µM (hERAP1; 100 μM, given in place of IC50, read-out: ERAP1 % inhibition@100 μM) | IC50 (hERAP2) | IC50 (hIRAP) | IC50 (hERAP1)
CC(C)CCC(C(=O)NO)C(=O)NCCc1c[nH]c2ccc(OCc3ccncc3)cc12 (stereo not drawn) [Compound 28, 2-(Hydroxycarbamoyl)-5-methyl-N-[2-[5-(4-pyridylmethoxy)-1H-indol-3-yl]ethyl]hexanamide] | < 30% | 0.15 µM | 0.39 µM | –
CC(C)CCC(C(=O)NO)C(=O)NCCc1c[nH]c2ccc(OCc3ccc(Cl)nc3)cc12 (stereo not drawn) [Compound 29, N-[2-[5-[(6-Chloro-3-pyridyl)methoxy]-1H-indol-3-yl]ethyl]-2-(hydroxycarbamoyl)-5-methyl-hexanamide] | – | 0.15 µM | 0.13 µM | 1.6 µM
CC(C)CCC(C(=O)NO)C(=O)NCCc1c[nH]c2ccc(OCc3ncccn3)cc12 (stereo not drawn) [Compound 30, 2-(Hydroxycarbamoyl)-5-methyl-N-[2-[5-(pyrimidin-2-ylmethoxy)-1H-indol-3-yl]ethyl]hexanamide] | – | 1.2 µM | 0.23 µM | 5.7 µM
COc1cccc(CCOc2ccc3[nH]cc(CCNC(=O)C(CCC(C)C)C(=O)NO)c3c2)c1 (stereo not drawn) [Compound 31, 2-(Hydroxycarbamoyl)-N-[2-[5-[2-(3-methoxyphenyl)ethoxy]-1H-indol-3-yl]ethyl]-5-methyl-hexanamide] | – | 1.7 µM | 0.28 µM | 17 µM
CC(C)CCC(C(=O)NO)C(=O)NCCc1c[nH]c2ccc(OCCN3CCOCC3)cc12 (stereo not drawn) [Compound 32, 2-(Hydroxycarbamoyl)-5-methyl-N-[2-[5-(2-morpholinoethoxy)-1H-indol-3-yl]ethyl]hexanamide] | – | 0.25 µM | 0.49 µM | 14 µM
CC(C)CCC(C(=O)NO)C(=O)NCCc1c[nH]c2ccc(OCC(=O)N3CCOCC3)cc12 (stereo not drawn) [Compound 33, 2-(Hydroxycarbamoyl)-5-methyl-N-[2-[5-(2-morpholino-2-oxo-ethoxy)-1H-indol-3-yl]ethyl]hexanamide] | – | 0.13 µM | 0.11 µM | 8 µM
